Patent publication US11833148B2, “Methods for treating or limiting development of cardiovascular disease-related neurological disorders” (ARIZONA BOARD OF REGENTS ON BEHALF OF THE UNIVERSITY OF …, priority 2018, dated 2023)
“Also recorded” adds a separate entry of the source.

What was measured:
Assay type in all cases: in vivo
TAC mice [1] = assay: Blood pressure by tail cuff in trans-aortic constriction (TAC) mice; conditions: daily SQ 2 mg/kg/mouse; for diastolic blood pressure / mean arterial pressure (MAP): approximately 5-6 weeks post-surgery, 30 minutes after dosing, compared to saline treated TAC mice
Method: FIG. 1 is a graph showing the effects of treatment on systolic blood pressure. At approximately 5-6 weeks post-surgery, systolic blood pressure was measured 30 minutes after dosing by tail cuff.
FIG. 2 is a graph showing the effects of treatment on diastolic blood pressure. At approximately 5-6 weeks post-surgery, diastolic blood pressure was measured 30 minutes after dosing by tail cuff.
FIG. 3 is a graph showing the effects of treatment on mean arterial pressure (MAP). At approximately 5-6 weeks post-surgery, mean arterial pressure was measured 30 minutes after dosing by tail cuff.
(§1) Treatment was initiated one week after TAC surgery (daily SQ injections at a dose of 2 mg/kg/mouse) when aortic constriction was confirmed. The treatment groups (n=12 per groups) included sham surgery controls treated with saline, TAC surgery controls treated with saline, TAC surgery animals treated with A (1-7), TAC surgery animals treated with Compound 7 and TAC surgery animals treated with Compound 10. Blood pressure was measured approximately 5-6 weeks after surgery by tail cuff and unaffected by Compound 7 or Compound 10. […] Novel object recognition (NOR) is a test of non-spatial memory. […] The preference of the animal for a novel object over a familiar object exploits the natural tendency of rodents to explore novel objects, was tested 10 weeks after surgery.

[2] = tested on: hippocampal cytokine levels (IL-2, IL-10, IL-4, IL-5, IL-6, IL-12p70, IFNγ, KC/GRO, TNFα, IL-10); assay: Hippocampal cytokine levels in TAC mice by multi-plexed immunoassay (Meso Scale Discovery); conditions: daily SQ 2 mg/kg/mouse, compared to saline treated TAC controls, data not shown
Method: as §1

TAC mice [3] = assay: Novel object recognition (NOR) test in TAC mice; conditions: daily SQ 2 mg/kg/mouse, 10 weeks post-surgery, compared to saline treated TAC mice
Method: FIG. 4 is a graph showing the effects of treatment on novel object recognition (NOR). At 10 weeks post-surgery, the mice underwent NOR test to assess cognitive function.
as §1

TAC mice [4] = assay: Observation of adverse events after TAC surgery combined with Mas agonist treatment; conditions: daily SQ 2 mg/kg/mouse
Method: as §1

Q: For CCCCOC(=O)NS(=O)(=O)c1ccc(OC(F)(F)F)cc1-c1ccc(Cn2ccnc2)cn1 [Compound 7], which blood pressure (TAC mice [1]; approximately 5-6 weeks after surgery) is on record?
A: Its blood pressure is “unaffected”.

Q: And the diastolic blood pressure (TAC mice [1])?
A: Its diastolic blood pressure is “no significant effect”.

Q: What about the “mean arterial pressure (MAP)” value (TAC mice [1]) of the same compound?
A: The value was “no significant effect”.

Q: And the “hippocampal levels of all cytokines tested (IL-2, IL-10, IL-4, IL-5, IL-6, IL-12p70, IFNγ, KC/GRO, TNFα, IL-10)” value [2]?
A: Its value is “decreased”.

Q: And the “novel object recognition (NOR) memory / cognitive function” value (TAC mice [3])?
A: The value was “restored NOR memory to sham levels; also recorded: significantly increased cognition”.

Q: What about the observable adverse events (TAC mice [4]) of the same compound?
A: The observable adverse events was “no observable adverse events”.

Q: “A (1-7): comparator treatment in TAC mice, printed only as A (1-7) (DRVYIHP; Angiotensin 1-7; UniProt P01019 25-31, looked up) [reference compound]” was tested. Which diastolic blood pressure (TAC mice [1]) did it give?
A: The diastolic blood pressure was “significantly reduced”.

Q: What about the “mean arterial pressure (MAP)” value (TAC mice [1]) of the same compound?
A: Its value is “significantly reduced”.
